What all share (assay type): cell-based
The subject of experiment [1] is MCF-7 cells. The experiment in a line: Radioactive glucose uptake in MCF-7 cells. The following applies: Homo sapiens, MCF7, 3H-2DG uptake. On the procedure:
Example 157: Radioactive Glucose Uptake in MCF-7 Cells
Assay Protocol • 1. Seed approximately 12,000 MCF-7 cells cultured without insulin per well in 96-well plates (BIOCOAT, #356690) and let the cells sit in hood for 30 min. (Cell culture medium: DMEM+10% FBS). • 2. Put the cell culture plates in TC incubator (5% CO2, 37° C.) and incubate overnight. • 3. Take out the cell plates and wash with prewarmed KRH buffer (37° C.) three times using BioTek plate washer. (KRH buffer preparation: 136 mM NaCl, 4.7 mM KCl, 1.25 mM MgCl2, 1.2 mM CaCl2), 20 mM HEPES, 0.1 mg/ml sodium pyruvate, 0.1% BSA, pH 7.4). • 4. Compound preparation and treatment: • a) Add 12 ul compound stock in 100% DMSO to the first column of Echo LDV plate • b) Serially dilute the compound solution in 100% DMSO (4 uL+8 uL DMSO) using Bravo for 9 doses • c) Dispense 350 nL compounds using Echo to the working plate. • d) i) Without compound preincubation condition, dispense 116 uL KRH buffer containing tritiated 2-deoxy-D-glucose (3H-2DG) and 2-deoxy-D-glucose (2DG) to the working plate and mix. • ii. With compound preincubation condition, dispense 110 uL KRH buffer only to the working plates and mix • e) Keep the compound working plate at 37° C. incubator until use • 5. Discard the KRH buffer (cells were kept in KRH buffer for 10-15 min before 2-DG addition) and transfer 100 uL compound working solution out to the cell culture plate using Bravo. Incubate for 20 mins at 37° C. (2DG final at 0.2 mM, 3H-2DG at 10 uCi/mL). • 6. Add prewarmed 50 uL KRH buffer (37° C.) containing 60 mM cold 2DG to the wells to stop the 2DG uptake using Multidrop combi • 7. Wash the cells with prewarmed PBS three times using BioTek plate washer • 8. Add 50 uL lysis buffer (0.1 M NaOH) into the assay plate to lyse the cells using Bravo and shake at 800 rpm for 30 min. • 9. Mix and transfer 20 uL lysate to a new white plate (Corning, #3610) and add 200 uL MicroScint-20 using Bravo • 10. Shake the plate at 1000 rpm for 30 min and count in a MicroBeta plate reader.

Experiment [2] deals with pS6K1 (p-p70 S6 Kinase (Thr389)) in MCF-7 cells. The experiment in a line: AlphaLISA Ultra pS6K1 assay. The following applies: Homo sapiens, MCF7, 2 h, 2 hours compound incubation. The procedure, abridged: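 MCF-7 cells seeded 20–24 h, medium refreshed 2 h, then treated 2 h with compound (0.5% DMSO final). Lysates probed for Thr389-phosphorylated p70 S6K by AlphaLISA Ultra, 2 h acceptor then 2 h donor bead incubation, read on a multimode reader.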

In experiment [3] the test system is pAKT (p-Akt 1/2/3 (Ser473)) in MCF-7 cells. Briefly: AlphaLISA Ultra pAKT assay. As to conditions: Homo sapiens, MCF7, 2 hours compound incubation. The procedure, abridged: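 AlphaLISA read-out (2 h acceptor-bead, then 2 h donor-bead incubation) on thawed lysates of MCF-7 cells exposed to compounds for 2 h in 0.5% DMSO. Cells had been plated 20-24 h and given fresh medium 2 h before dosing.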
Background: Bead proximity is the source of the signal in Alpha formats.

Molecules are shown by their SMILES.

On to `Cc1cc(C)c(C(=O)N2CCN(c3ccccn3)[C@H](C)C2)cc1NC1CCN(c2ccccc2C#N)CC1` [I-45, (R)-2-(4-(2,4-Dimethyl-5-(3-methyl-4-(pyridin-2-yl)piperazine-1-carbonyl)phenylamino)piperidin-1-yl) benzonitrile], for which the figures for the IC50 in experiment [1], in experiment [2] and in experiment [3] were 10 to 1000 nM, 10 to 1000 nM and above 10000 nM, respectively.
For `Cc1cc(C)c(C(=O)N2CCN(c3ncccc3S(N)(=O)=O)CC2)cc1NC1CCN(c2ccccc2C#N)CC1` [I-60], the IC50 (as a rule, the concentration that inhibits the measured activity by half) in experiment [1] was 10 to 1000 nM; in experiment [2] it was 1000 to 3000 nM; in experiment [3] it was above 10000 nM.
As to `Cc1cc(C)c(C(=O)N2CCN(c3cccc4c3NC(=O)C4)CC2)cc1NC1CCN(c2ccccc2C#N)CC1` [I-61, 2-(4-(2,4-Dimethyl-5-(4-(2-oxoindolin-7-yl)piperazine-1-carbonyl)phenylamino)piperidin-1-yl)benzonitrile], the figures for the IC50 in experiment [1], in experiment [2] and in experiment [3] were 10 to 1000 nM, 10 to 1000 nM and above 10000 nM, respectively.
As for `Cc1cc(C)c(C(=O)N2CCN(c3cccc(F)c3)C(CO)C2)cc1NC1CCN(c2ccccc2C#N)CC1` (stereo not drawn) [I-75, 2-[4-({5-[4-(3-Fluorophenyl)-3-(hydroxymethyl)piperazine-1-carbonyl]-2,4-dimethylphenyl}amino)piperidin-1-yl]benzonitrile], the IC50 in experiment [1] is 10 to 1000 nM; in experiment [2] it was 10 to 1000 nM; in experiment [3], above 10000 nM.
For `Cc1cc(C)c(C(=O)N2CCN(c3nnnn3C)[C@H](CO)C2)cc1NC1CCN(c2ccccc2C#N)CC1` [I-91, (S)-2-(4-(5-(3-(Hydroxymethyl)-4-(1-methyl-1H-tetrazol-5-yl)piperazine-1-carbonyl)-2,4-dimethylphenylamino)piperidin-1-yl) benzonitrile], the IC50 in experiment [1] was 1000 to 3000 nM; in experiment [2], 5000 to 10000 nM; in experiment [3], above 10000 nM.
Taken in the same sequence, the figures for `Cc1cc(C)c(C(=O)N2CCN(c3cc(F)ccn3)[C@H](CO)C2)cc1NC1CCN(c2ccccc2C#N)CC1` [I-100, (S)-2-(4-(5-(4-(4-Fluoropyridin-2-yl)-3-(hydroxymethyl)piperazine-1-carbonyl)-2,4-dimethylphenylamino)piperidin-1-yl)benzonitrile] were 10 to 1000 nM, 10 to 1000 nM and above 10000 nM.
Taken in the same sequence, the figures for `Cc1cccc(N2CCN(C(=O)c3cc(NC4CCN(c5ccccc5C#N)CC4)c(C)cc3C)C[C@H]2CO)n1` [I-102, (S)-2-(4-(5-(3-(Hydroxymethyl)-4-(6-methylpyridin-2-yl)piperazine-1-carbonyl)-2,4-dimethylphenylamino)piperidin-1-yl)benzonitrile] were 10 to 1000 nM, 10 to 1000 nM and above 10000 nM.
Taken in the same sequence, the figures for `Cc1cc(C)c(S(=O)(=O)N2CCN(c3ccccc3S(N)(=O)=O)CC2)nc1NC1CCN(c2ccccc2C#N)CC1` [I-111, 2-(4-(6-(1-(2-Cyanophenyl)piperidin-4-ylamino)-3,5-dimethylpyridin-2-ylsulfonyl)piperazin-1-yl)benzenesulfonamide] were 10 to 1000 nM, 10 to 1000 nM and above 10000 nM.
Regarding `Cc1ccc(C(=O)N2CCN(c3cccnc3S(N)(=O)=O)CC2)c(C)c1NC1CCN(c2ccccc2C#N)CC1` [I-121, 3-(4-(3-(1-(2-cyanophenyl)piperidin-4-ylamino)-2,4-dimethylbenzoyl)piperazin-1-yl)pyridine-2-sulfonamide], the half-inhibitory concentration (IC50) in experiment [1] is 10 to 1000 nM; in experiment [2] it was 10 to 1000 nM; in experiment [3] it was above 10000 nM.
For the molecule `COc1ccccc1N1CCC(Nc2cc(C(=O)N3CCN(c4ccccc4S(N)(=O)=O)CC3)c(C)cc2C)CC1` [I-128, 2-(4-(5-(1-(2-Methoxyphenyl)piperidin-4-ylamino)-2,4-dimethylbenzoyl)piperazin-1-yl)benzenesulfonamide], the IC50 in experiment [1] is 10 to 1000 nM; in experiment [2], 10 to 1000 nM; in experiment [3], above 10000 nM.
For the molecule `Cc1cc(C)c(C(=O)N2CCN(c3ccccc3S(N)(=O)=O)CC2)cc1NC1CN(c2ccccc2C#N)C1` [I-130, 2-(4-(5-(1-(2-Cyanophenyl)azetidin-3-ylamino)-2,4-dimethylbenzoyl)piperazin-1-yl)benzenesulfonamide], the IC50 in experiment [1] is 3000 to 5000 nM; in experiment [2], 3000 to 5000 nM; in experiment [3], above 10000 nM.
As for `Cc1cc(C)c(C(=O)N2CCN(c3ccccn3)C(=O)C2)c(C)c1NC1CCN(c2ccccc2C#N)CC1` [I-138, 2-[4-({2,4,6-trimethyl-3-[3-oxo-4-(pyridin-2-yl)piperazine-1-carbonyl]phenyl}amino)piperidin-1-yl] benzonitrile], the IC50 was 10 to 1000 nM in experiment [1], 10 to 1000 nM in experiment [2] and above 10000 nM in experiment [3].
Turning to `Cc1cc(C)c(C(=O)N2CCN(c3cccnn3)[C@H](CO)C2)c(C)c1NC1CCN(c2ccc(F)cc2C#N)CC1` [I-141, 5-Fluoro-2-[4-[3-[(3S)-3-(hydroxymethyl)-4-pyridazin-3-yl-piperazine-1-carbonyl]-2,4,6-trimethyl-anilino]-1-piperidyl]benzonitrile], the IC50 in experiment [1] is 10 to 1000 nM; in experiment [2], 10 to 1000 nM; in experiment [3] it was above 10000 nM.
For `Cc1cc(C)c(C(=O)N2CCN(c3ccccn3)[C@H](CO)C2)c(C)c1NC1CCN(c2cccnn2)CC1` [I-159, [(2S)-1-(pyridin-2-yl)-4-(2,4,6-trimethyl-3-{[1-(pyridazin-3-yl)piperidin-4-yl]amino}benzoyl)piperazin-2-yl]MeOH], the half-inhibitory concentration (IC50) is 10 to 1000 nM in experiment [1], 10 to 1000 nM in experiment [2] and above 10000 nM in experiment [3].
As to `Cc1cc(C)c(C(=O)N2CCN(c3ccccc3)[C@H](CO)C2)c(C)c1NC1CCN(c2ccncn2)CC1` [I-166, [(3S)-3-(Hydroxymethyl)-4-phenyl-piperazin-1-yl]-[2,4,6-trimethyl-3-[(1-pyrimidin-4-yl-4-piperidyl)amino]phenyl]methanone], the concentration for half-maximal inhibition (IC50) was above 10000 nM in experiment [1], 1000 to 3000 nM in experiment [2] and above 10000 nM in experiment [3].
On to `Cc1cc(C)c(C(=O)N2CCN(c3ccccc3S(N)(=O)=O)CC2)cc1N[C@@H]1CCN(c2ccccc2C#N)C[C@@H]1C` [I-171, 2-(4-(5-(((3S,4R)-1-(2-cyanophenyl)-3-methylpiperidin-4-yl)amino)-2,4-dimethylbenzoyl)piperazin-1-yl)benzenesulfonamide], for which the figures for the IC50 in experiment [1], in experiment [2] and in experiment [3] were 10 to 1000 nM, 10 to 1000 nM and above 10000 nM, respectively.
For `Cc1cc(C)c(C(=O)N2CCN(c3cccc(F)c3S(N)(=O)=O)C[C@@H]2C)c(C)c1NC1CCN(c2ccc(F)cc2C#N)CC1` [I-182, (S)-2-(4-(3-((1-(2-cyano-4-fluorophenyl)piperidin-4-yl)amino)-2,4,6-trimethylbenzoyl)-3-methylpiperazin-1-yl)-6-fluorobenzenesulfonamide], the IC50 in experiment [1] is 10 to 1000 nM; in experiment [2], 10 to 1000 nM; in experiment [3] it was above 10000 nM.
For `Cc1cc(C)c(C(=O)N2CCN(c3cccc(F)c3[S@@](C)(=N)=O)C[C@@H]2C)c(C)c1NC1CCN(c2ccc(F)cc2C#N)CC1` [I-191, 5-fluoro-2-(4-(3-((2S)-4-(3-fluoro-2-(S-methylsulfonimidoyl)phenyl)-2-methylpiperazine-1-carbonyl)-2,4,6-trimethylphenylamino)piperidin-1-yl)benzonitrile], the IC50 in experiment [1] is 10 to 1000 nM; in experiment [2], 10 to 1000 nM; in experiment [3], above 10000 nM.

For the origin of these results see US10844013B2, “Phenyl amino piperidine mTORC inhibitors and uses thereof” (Navitor Pharmaceuticals, Inc., priority 2016, dated 2020).
